This assay concerns RAW264.7 macrophage cells. Nature of the assay: Fluorescent microscopy of RAW264.7 macrophages stimulated with LPS and IFN-γ. The format is cell-based, Mouse. Particulars: 500 nM. On the procedure: The macrophage cells were incubated with Compound 27 at a concentration of 500 nM. Upper: Control; Lower: The macrophages were stimulated with LPS and IFN-γ for 14 hr. Left: Nuclear staining with Hoechst; Middle: Compound 27; Right: Merged.
Human SH-SY5Y neuroblastoma cells (ATCC, USA) were maintained in high glucose Dulbecco's Modified Eagle Medium (DMEM, Hyclone) supplemented with 10% fetal bovine serum (FBS, Gibco), 1% penicillin/streptomycin (PS, Gibco) and 1% L-glutamine (Gibco). Mouse C17.2 neural progenitor cells (ATCC, USA) were maintained in high glucose Dulbecco's Modified Eagle Medium supplemented with 8% fetal bovine serum (Gibco), 4% horse serum (Gibco), 1% penicillin/streptomycin and 1% L-glutamine. Mouse RAW264.7 macrophage cells (ATCC, USA) were maintained in high glucose Dulbecco's Modified Eagle Medium (DMEM, Hyclone) supplemented with 10% fetal bovine serum (Gibco), 1% penicillin/streptomycin (Gibco) and 1% L-glutamine.
Generally, cells were grown to confluence prior to experiment. Cells were incubated with Compounds) 6, 7, 8, 14, 20, 21, 24, 27, and 32, respectively for 1 hr, and then washed three times with PBS buffer.

Take `CC[N+]1=c2cc3c(cc2C(C)CC1(C)C)=C(c1ccc(C(=O)N(CC(=O)OC)CC(=O)OC)cc1C)c1ccc(N(C)c2ccc(O)cc2)cc1[Si]3(C)C` (centres unmarked) [Compound 27]: the “fluorescence after treatment with stimulants” value (LPS and IFN-γ for 14 hr) is listed as “strongly induced”. In addition, where the note is “control”, the “fluorescence in the absence of stimulants” value is “very weak fluorescence”.

The record behind these values is patent US20130196362A1, “DIARYLAMINE-BASED FLUOROGENIC PROBES FOR DETECTION OF PEROXYNITRITE” (THE UNIVERSITY OF HONG KONG, priority 2012, published 2013).
